Assays:
JAK3 kinase = target: T1, JAK3 kinase (Homo sapiens, UniProt P52333); test: Mobility shift assay, in vitro JAK3 kinase inhibitory activity; format: biochemical; details: mobility shift assay, Example 136
T1 sequence (P52333 1-1124): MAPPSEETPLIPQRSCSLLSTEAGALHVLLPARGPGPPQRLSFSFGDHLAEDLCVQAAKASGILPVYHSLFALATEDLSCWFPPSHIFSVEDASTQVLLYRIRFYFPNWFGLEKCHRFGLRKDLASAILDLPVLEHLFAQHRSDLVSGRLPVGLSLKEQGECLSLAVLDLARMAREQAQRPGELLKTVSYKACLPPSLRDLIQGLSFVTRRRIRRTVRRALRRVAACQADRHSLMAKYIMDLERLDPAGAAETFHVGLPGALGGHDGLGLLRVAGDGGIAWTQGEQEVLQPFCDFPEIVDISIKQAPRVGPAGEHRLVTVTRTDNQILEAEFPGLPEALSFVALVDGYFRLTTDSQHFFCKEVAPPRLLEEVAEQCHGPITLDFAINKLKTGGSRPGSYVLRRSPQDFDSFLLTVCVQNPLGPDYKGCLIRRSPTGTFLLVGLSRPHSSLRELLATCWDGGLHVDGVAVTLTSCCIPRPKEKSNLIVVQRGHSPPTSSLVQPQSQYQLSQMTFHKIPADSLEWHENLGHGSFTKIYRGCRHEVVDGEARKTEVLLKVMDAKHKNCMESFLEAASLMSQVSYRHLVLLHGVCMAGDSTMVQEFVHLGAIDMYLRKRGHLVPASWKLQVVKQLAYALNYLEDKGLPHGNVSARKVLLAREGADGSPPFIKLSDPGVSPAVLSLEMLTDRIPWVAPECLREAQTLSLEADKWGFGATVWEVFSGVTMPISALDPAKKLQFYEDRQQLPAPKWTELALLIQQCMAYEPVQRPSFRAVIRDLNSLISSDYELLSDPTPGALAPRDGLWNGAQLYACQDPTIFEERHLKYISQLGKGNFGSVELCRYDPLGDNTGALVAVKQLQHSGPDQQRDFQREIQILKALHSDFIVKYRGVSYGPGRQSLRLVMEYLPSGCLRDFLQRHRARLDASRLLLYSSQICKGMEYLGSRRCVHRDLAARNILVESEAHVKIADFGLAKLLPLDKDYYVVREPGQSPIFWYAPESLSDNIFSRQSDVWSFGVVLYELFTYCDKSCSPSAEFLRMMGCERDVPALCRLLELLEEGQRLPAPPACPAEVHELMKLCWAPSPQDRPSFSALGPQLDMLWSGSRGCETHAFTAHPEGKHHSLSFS
Method: A Mobility shift assay was adopted to detect compounds to be tested (see list below) for in vitro inhibitory activity on the enzyme activity of JAK3 kinase.
The compound was dissolved in 100% DMSO to formulate a 10 mM stock solution, which was stored in a −20° C. refrigerator with protection from light.
The compounds were diluted with gradients into solutions with a final concentration of 100 times in a 384-well plate. Then 250 nL was transferred to a 384 reaction plate with Echo550 for later use. 250 nL of 100% DMSO was added into the negative control well and the positive control well respectively. • (3) A kinase solution with a final concentration of 2.5 times was formulated with the 1× Kinase buffer. • (4) The compound wells and the positive control wells were added with 10 μL of the kinase solution with the final concentration of 2.5 times respectively; the negative control wells were added with 10 μL of the 1× Kinase buffer. • (5) The wells were centrifuged at 1,000 rpm for 30 seconds, mixed well by shaking, and then incubated at room temperature for 10 minutes. • (6) A mixed solution of ATP and Kinase substrate 22 with a final concentration of 25/15 times was formulated with a 1× Kinase buffer. • (7) The compound wells, positive control wells and negative control wells of the 384 reaction plate were respectively added with 15 μL of a mixed solution of ATP and the substrate at the final concentration of 25/15 times to start the reaction. • (8) The 384-well plate was centrifuged at 1,000 rpm for 30 seconds, mixed well by shaking, and then incubated at room temperature for 30 minutes. • (9) 30 μL of a detection termination solution was added to stop the kinase reaction, centrifuged at 1,000 rpm for 30 seconds, and mixed well by shaking. • (10) The conversion rate was read with Caliper EZ Reader.
% Inhibition=(Conversion %_max−Conversion %_sample)/(Conversion %_max−Conversion %_min)×100 (1) Calculation Equation
Among them: Conversion %_sample was the conversion rate reading of the sample; Conversion %_min was the mean value of the negative control wells, representing the conversion rate reading of the wells without enzyme activity; Conversion % max was the mean value of the positive control wells, representing the conversion rate reading of the wells without compound inhibition; and % Inhibition represented the percentage inhibition rate.
• by taking the log value of concentration as the X axis and taking the percent inhibition rate as the Y axis, a dose-response curve is fitted by adopting the log (inhibitor) vs. response-Variable slope of the analysis software GraphPad Prism 5, so as to obtain the IC50 value of each compound on the enzyme activity. The calculation equation was Y=Bottom+ (Top−Bottom)/(1+10^((Log IC50−X)*HillSlope)).

[1] = In vivo exposure detection in SD rats (plasma, LC-MS/MS); details: IG 20 mg/kg, average value
Method: Preparation and processing of standard curves and quality control samples: the compound stock solution was taken and diluted with 50% methanol and water into standard working solutions containing respective compounds at concentrations of 20, 40, 100, 200, 400, 1,000, 2,000, 4,000, and 10,000 ng/mL respectively and quality control working solutions at concentrations of 60, 600 and 8,000 ng/mL respectively. Each 47.5 μL of blank rat plasma was taken and added with 2.50 μL of a standard curve working solution and a quality control working solution respectively to prepare standard curve samples containing respective compounds at concentrations of 1.00, 2.00, 5.00, 10.00, 20.00, 50.00, 100.00, 200.00 and 500.00 ng/mL and quality control samples with concentrations of 3.00, 30.00 and 400.00 ng/mL. The samples were respectively added with 200 μL of acetonitrile (containing 2 ng/mL of verapamil as an internal standard), vortexed with shaking for 3 min, and then centrifuged at 20,000 rcf and 4° C. for 10 min, and the supernatant was taken for LC-MS/MS analysis.
Preparation and processing of plasma sample to be tested: 50 μL of the plasma sample was taken, added with 200 μL of acetonitrile (containing 2 ng/ml of verapamil as an internal standard), vortexed with shaking for 3 min, and then centrifuged at 20,000 rcf and 4° C. for 10 min, and […] for LC-MS/MS analysis.

SRBC mouse model = test: SRBC-induced delayed type hypersensitivity (DTH) in mice; format: in vivo; details: male Balb/c mice, 100 mg/kg by gavage once a day, day 0 to day 6, FIG. 1
Method: PF-06651600 was used as a positive control compound.
Drug preparation: the compound was weighed and added with a 0.5% CMC-Na solution to prepare a drug suspension (with an administration dose of 10 mg/mL).
Induction of delayed type hypersensitivity (DTH) and administration: 30 male Balb/c mice were weighed and randomly divided into 6 groups according to body weight, with 5 mice in each group. The experimental period lasted for 7 days in total. On day 0, the mice were subcutaneously injected with sheep red blood cells (SRBCs) for sensitization. From day 0, the mice were administrated with 100 mg/kg by gavage (once a day) until day 6. On day 6, SRBCs were injected into the right hind foot pad of the mice for excitation. On day 7 of the experiment, measurements were conducted, photographs were taken, and the experiment was ended.
Pharmacodynamic detection indicators of disease models: the detection and observation indicators were the degree of redness and swelling and detected thicknesses of paw pads of the mice in the model group as induced by SRBC. The thickness of the right paw was measured as the baseline before the SRBC injection excitation on day 6. At the end of the experiment […], the thickness of the right paw was measured again, and the difference in thickness of the paw before and after the second injection was calculated.
Statistical processing: experimental data was expressed as mean±standard deviation (Mean±SD). All data was statistically analyzed using a T-test. P<0.05 was considered to be statistically different.

C[C@@H]1Cn2ncc(-c3ccnc4[nH]ccc34)c2CN1S(C)(=O)=O [YZ001011]
IC50 (JAK3 kinase): > 10000 nM

C=CC(=O)N1Cc2[nH]nc(-c3ccnc4[nH]ccc34)c2C1 [YZ001076]
IC50 (JAK3 kinase): 0.28 nM

C=CC(=O)N1Cc2c(-c3ncnc4[nH]ccc34)cnn2C[C@@H]1C(C)C [YZ001033]
IC50 (JAK3 kinase): 0.12 nM

C=CC(=O)N1Cc2c(-c3ncnc4[nH]ccc34)cnn2[C@H](C)C1 [YZ001028]
IC50 (JAK3 kinase): 0.19 nM

C=CC(=O)N1Cc2c(-c3ccnc4[nH]ccc34)cnn2[C@H]2CCC[C@H]21 [YZ001057]
IC50 (JAK3 kinase): 0.31 nM

C=CC(=O)N1Cc2c(-c3ccnc4[nH]ccc34)nn(C)c2C[C@H]1C [YZ001083]
IC50 (JAK3 kinase): 1.5 nM

C=CC(=O)N1CCCCn2ncc(-c3ccnc4[nH]ccc34)c2C1 [YZ001095]
IC50 (JAK3 kinase): 7 nM

C[C@H]1Cn2ncc(-c3ccnc4[nH]ccc34)c2CN1C(=O)/C=C/CN1CCCCC1 [YZ001023]
IC50 (JAK3 kinase): 0.58 nM

C=C(F)C(=O)N1CCc2c(c(-c3ccnc4[nH]ccc34)nn2C)C1 [YZ001054]
AUClast_D [1]: 93.88 kg·ng·h/mL/mg
Cl_F_obs [1]: 235.1403 mL/min/kg
HL_Lambda_z [1]: 1.4162 h
Vz_F_obs [1]: 34.35946 L/kg
AUC(0-t) ([1]; Sprague-Dawley (SD), rat, po): 1880 ng·h/mL
Cmax ([1]; Sprague-Dawley (SD), rat, po): 1360 ng/mL
Tmax ([1]; Sprague-Dawley (SD), rat, po): 4.5 h
AUC(0-inf) ([1]; Sprague-Dawley (SD), rat, po, read-out: AUCINF_obs): 1900 ng·h/mL
MRT inf ([1]; Sprague-Dawley (SD), rat, po, read-out: MRTINF_obs): 1.95 h
immunosuppressive effect on SRBC-induced delayed type hypersensitivity (right paw thickness) (SRBC mouse model): significant immunosuppressive effects

C=CC(=O)N1Cc2c(-c3ncnc4[nH]ccc34)cnn2C[C@H]1C(C)C [YZ001030]
IC50 (JAK3 kinase): 2.4 nM

C=CC(=O)N1Cc2c(-c3ccnc4[nH]ccc34)nn(C(C)C)c2C[C@H]1C [YZ001085]
IC50 (JAK3 kinase): 0.53 nM
immunosuppressive effect on SRBC-induced delayed type hypersensitivity (right paw thickness) (SRBC mouse model): significant immunosuppressive effects

C=CC(=O)N1Cc2c(-c3ccnc4[nH]ccc34)n[nH]c2[C@@H]1C [YZ001091]
IC50 (JAK3 kinase): 5.1 nM

CN(C)C/C=C/C(=O)N1Cc2c(-c3ccnc4[nH]ccc34)cnn2[C@@H]2CCC[C@@H]21 [YZ001047]
IC50 (JAK3 kinase): 4.5 nM

C=CC(=O)N1Cc2c(-c3ccnc4[nH]ccc34)cnn2[C@@H]2CCCC[C@@H]21 [YZ001055]
IC50 (JAK3 kinase): 0.11 nM

C=CC(=O)N1CCCn2ncc(-c3ccnc4[nH]ccc34)c2C1 [YZ001093]
IC50 (JAK3 kinase): 1.4 nM

C=CC(=O)N1CCc2c(c(-c3ccnc4[nH]ccc34)nn2C(C)C)C1 [YZ001117]
IC50 (JAK3 kinase): 6.93 nM

C=C(F)C(=O)N1Cc2[nH]nc(-c3ccnc4[nH]ccc34)c2C1 [YZ001077]
IC50 (JAK3 kinase): 7.1 nM

[2H]C([2H])([2H])n1nc(-c2ccnc3[nH]ccc23)c2c1CCN(C(=O)C=C)C2 [YZ001103]
IC50 (JAK3 kinase): 0.29 nM

C[C@H]1CN(C(=O)/C=C/CN(C)C)Cc2c(-c3ncnc4[nH]ccc34)cnn21 [YZ001027]
IC50 (JAK3 kinase): 7.8 nM

C=CC(=O)N1Cc2c(-c3ccnc4[nH]ccc34)cnn2[C@H](C)C1 [YZ001099]
IC50 (JAK3 kinase): 0.2 nM

C=CC(=O)N1Cc2c(-c3ncnc4[nH]ccc34)cnn2C[C@H]1C [YZ001018]
IC50 (JAK3 kinase): 0.48 nM

C=C(F)C(=O)N1Cc2c(-c3ccnc4[nH]ccc34)cnn2[C@@H]2CCCC[C@@H]21 [YZ001056]
IC50 (JAK3 kinase): 4.2 nM

C=CC(=O)N1Cc2c(-c3ccnc4[nH]ccc34)cnn2C[C@H]1CCS(C)(=O)=O [YZ001074]
IC50 (JAK3 kinase): 0.57 nM

C=CC(=O)N1Cc2c(-c3ccnc4[nH]ccc34)cnn2[C@@H]2CCC[C@@H]21 [YZ001045]
IC50 (JAK3 kinase): 0.19 nM

C=C(F)C(=O)N1Cc2c(-c3ccnc4[nH]ccc34)cnn2[C@H](C)C1 [YZ001100]
IC50 (JAK3 kinase): 3.8 nM

C=C(F)C(=O)N1CCc2c(c(-c3ccnc4[nH]ccc34)nn2C(C)=O)C1 [YZ001109]
IC50 (JAK3 kinase): 5.2 nM

C[C@@H]1Cn2ncc(-c3ccnc4[nH]ccc34)c2CN1C(=O)CCl [YZ001013]
IC50 (JAK3 kinase): 8.1 nM

C=CC(=O)N1CCc2c(c(-c3ccnc4[nH]ccc34)nn2C(C)=O)C1 [YZ001108]
IC50 (JAK3 kinase): 0.35 nM

C=CC(=O)N1Cc2c(-c3ncnc4[nH]ccc34)cnn2C[C@@H]1C [YZ001024]
IC50 (JAK3 kinase): 0.15 nM

C[C@H]1Cn2ncc(-c3ccnc4[nH]ccc34)c2CN1C(=O)/C=C/CN(C)C [YZ001022]
IC50 (JAK3 kinase): 0.87 nM

C=CC(=O)N1Cc2c(-c3ncnc4[nH]ccc34)cnn2[C@@H](C)C1 [YZ001026]
IC50 (JAK3 kinase): 0.43 nM

C=CC(=O)N1Cc2c(-c3ccnc4[nH]cc(C(C)=O)c34)cnn2C[C@@H]1C [YZ001063]
IC50 (JAK3 kinase): 1.4 nM

C=CC(=O)N1CCn2ncc(-c3ccnc4[nH]ccc34)c2C1 [YZ001002]
IC50 (JAK3 kinase): 0.14 nM
